In the assay the target is T1, NPF1.3 (Arabidopsis thaliana, UniProt Q9LYD5).
T1 construct: full-length cDNA in pOO2-GW; cRNA expressed in Xenopus laevis oocytes
T1 sequence (Q9LYD5 1-481): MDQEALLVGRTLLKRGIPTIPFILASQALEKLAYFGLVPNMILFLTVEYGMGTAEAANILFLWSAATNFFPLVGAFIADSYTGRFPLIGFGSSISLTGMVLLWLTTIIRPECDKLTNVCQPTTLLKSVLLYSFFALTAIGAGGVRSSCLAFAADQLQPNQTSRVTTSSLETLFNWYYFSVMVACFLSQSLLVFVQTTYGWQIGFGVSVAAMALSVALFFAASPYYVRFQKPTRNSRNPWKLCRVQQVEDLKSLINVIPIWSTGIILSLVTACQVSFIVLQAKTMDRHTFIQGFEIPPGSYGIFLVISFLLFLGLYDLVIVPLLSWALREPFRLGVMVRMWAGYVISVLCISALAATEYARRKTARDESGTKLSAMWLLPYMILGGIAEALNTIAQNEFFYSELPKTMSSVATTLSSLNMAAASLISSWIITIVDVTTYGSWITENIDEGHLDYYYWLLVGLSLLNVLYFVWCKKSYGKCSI
In words: two-electrode voltage clamp, inward current in Xenopus oocytes. Format: cell-based. To be noted: 5 mM CsNO3 (Figure 5 legend, methods; text says KNO3); -120 mV.

Regarding `O=[N+]([O-])O` [nitrate], the “two-electrode voltage clamp, inward current in Xenopus oocytes” value is “the nitrate-dependent inward currents were observed by KNO3 in NPF1.3-injected oocytes”.

Source of the values: paper PMC8839256, “Concept of Fluorescent Transport Activity Biosensor for the Characterization of the Arabidopsis NPF1.3 Activity of Nitrate” (Sensors (Basel, Switzerland), 2022).
